Two molecules from patent US4521418A, “Guanidinothiazolyl derivatives” (Smith Kline & French Laboratories Limited, priority 1979, dated 1985) can be followed below.

This test has as its system histamine H2 -receptors. The experiment in a line: inhibition of histamine-stimulated secretion of gastric acid from Heidenhain pouch dogs. Format: in vivo. Conditions: Heidenhain pouch dog, 0.25 micromol kg^-1 i.v. On the procedure:
Heidenhain pouch dogs are prepared by the following procedure. The abdomen of a male beagle (14-16 kg) is opened and the stomach is exteriorized. Blood vessels are ligated and cut at two places on the greater curvature to enable a piece of the fundus of the stomach to be cut away from the main stomach to form the pouch. The incision lines are sewn together to enable normal digestion. A stainless steel cannula is inserted into the pouch and the end not in the pouch is exteriorized through a stab wound in the abdominal wall to allow drainage of gastric juice under gravity. Finally, the abdomen is closed by a continuous suture. The dogs are ready for experimental use approximately three weeks after operation. The compounds of the invention are tested in Heidenhain pouch dogs by the following procedure. The dogs are starved for approximately 20 hours prior to the experiment and are then placed in Pavlov stands. A polythene cannula is placed in a leg vein and saline is infused for about one hour. A check is made that there is no basal acid secretion. Histamine (20 micromoles/hour) or pentagastrin (8 micrograms/kg/hour) is continuously infused in place of the saline. A plateau of acid secretion is reached after 11/2 to 2 hours and the test compound is administered intravenously or orally (contained within a hard gelatin capsule). Gastric juice is collected by drainage under gravity into perspex tubes attached to the gastric cannula. Normally samples are collected over fifteen minute periods. The volumes of the samples are measured and aliquots are titrated to pH 7.4 with 0.1N sodium hydroxide. Acid secretion is expressed as the product of the volume and acid concentration.

SMILES strings stand for the structures.

For the molecule `N=C(N)Nc1nc(CSCCNc2ncc(Cc3cccnc3)c(=O)[nH]2)cs1` [Example 1, 2-[2-(2-guanidino-4-thiazolylmethylthio)ethylamino]-5-(3-pyridylmethyl)-4-pyrimidone], the duration of action result is recorded as “extended duration of action” and the “mean peak inhibition of histamine-stimulated gastric acid secretion” value is recorded as “over 50%”.
The like results for `Cc1ccc(Cc2cnc(NCCSCc3csc(NC(=N)N)n3)[nH]c2=O)cn1` [Example 3, 2-[2-(2-guanidino-4-thiazolylmethylthio)ethylamino]-5-(6-methyl-3-pyridylmethyl)-4-pyrimidone] were, in that order, “extended duration of action” and “over 50%”.
